From publication PMC6694038, “Pharmacogenomic–pharmacokinetic study of selective estrogen-receptor modulators with intra-patient dose escalation in breast cancer” (Breast Cancer (Tokyo, Japan), 2019)
Where two headings read alike, the source gives them in different places.

Text: Written informed consent was obtained from all the participants included in the study. The patient enrolment period for the screening study started on February 1, 2009 and ended on July 31, 2012.
We obtained data on compliance and the grade of hot flush as defined by the Common Terminology Criteria for Adverse Events v3.0.
The p value was not calculated if there were no events.

CN(C)CCOc1ccc(/C(=C(/CCCl)c2ccccc2)c2ccccc2)cc1 [TOR, toremifene]
Cre elevation All grade, % of patients (TOR 40 mg): 36.4% | Cre elevation All grade, patients (TOR 40 mg): 4 | Cre elevation ≧ G2, % of patients (TOR 40 mg): 0 (0) % | Cre elevation ≧ G2, patients (TOR 40 mg): 0 (0) | GOT elevation All grade, % of patients (TOR 40 mg): 0 (0) % | GOT elevation All grade, patients (TOR 40 mg): 0 (0) | GOT elevation ≧ G2, % of patients (TOR 40 mg): 0 (0) % | GOT elevation ≧ G2, patients (TOR 40 mg): 0 (0) | GPT elevation All grade, % of patients (TOR 40 mg): 0 (0) % | GPT elevation All grade, patients (TOR 40 mg): 0 (0) | GPT elevation ≧ G2, % of patients (TOR 40 mg): 0 (0) % | GPT elevation ≧ G2, patients (TOR 40 mg): 0 (0) | Hot flush G0, % of patients (TOR 40 mg): 100% | Hot flush G0, patients (TOR 40 mg): 14 | Hot flush G1, % of patients (TOR 40 mg): 0 (0) % | Hot flush G1, patients (TOR 40 mg): 0 (0) | Hot flush G2, % of patients (TOR 40 mg): 0 (0) % | Hot flush G2, patients (TOR 40 mg): 0 (0) | Hyperglycemia All grade, % of patients (TOR 40 mg): 0 (0) % | Hyperglycemia All grade, patients (TOR 40 mg): 0 (0) | Hyperglycemia ≧ G2, % of patients (TOR 40 mg): 0 (0) % | Hyperglycemia ≧ G2, patients (TOR 40 mg): 0 (0) | LDH elevation All grade, % of patients (TOR 40 mg): 0 (0) % | LDH elevation All grade, patients (TOR 40 mg): 0 (0) | LDH elevation ≧ G2, % of patients (TOR 40 mg): 0 (0) % | LDH elevation ≧ G2, patients (TOR 40 mg): 0 (0) | LDL elevation All grade, % of patients (TOR 40 mg): 0 (0) % | LDL elevation All grade, patients (TOR 40 mg): 0 (0) | LDL elevation ≧ G2, % of patients (TOR 40 mg): 0 (0) % | LDL elevation ≧ G2, patients (TOR 40 mg): 0 (0) | Low PLT All grade, % of patients (TOR 40 mg): 0 (0) % | Low PLT All grade, patients (TOR 40 mg): 0 (0) | Low PLT ≧ G2, % of patients (TOR 40 mg): 0 (0) % | Low PLT ≧ G2, patients (TOR 40 mg): 0 (0) | Low WBC All grade, % of patients (TOR 40 mg): 11.1% | Low WBC All grade, patients (TOR 40 mg): 1 | Low WBC ≧ G2, % of patients (TOR 40 mg): 11.1% | Low WBC ≧ G2, patients (TOR 40 mg): 1 | T. Bil elevation All grade, % of patients (TOR 40 mg): 0 (0) % | T. Bil elevation All grade, patients (TOR 40 mg): 0 (0) | T. Bil elevation ≧ G2, % of patients (TOR 40 mg): 0 (0) % | T. Bil elevation ≧ G2, patients (TOR 40 mg): 0 (0) | TG elevation All grade, % of patients (TOR 40 mg): 12.5% | TG elevation All grade, patients (TOR 40 mg): 1 | TG elevation ≧ G2, % of patients (TOR 40 mg): 0 (0) % | TG elevation ≧ G2, patients (TOR 40 mg): 0 (0) | Weight, max (TOR 40 mg): 73.4 kg | Weight, mean (TOR 40 mg): 53.2 kg | Weight, median (TOR 40 mg): 51.7 kg | Weight, min (TOR 40 mg): 45.0 kg | Cre elevation All grade, % of patients (TOR 120 mg (1)): 27.3% | Cre elevation All grade, patients (TOR 120 mg (1)): 3 | Cre elevation ≧ G2, % of patients (TOR 120 mg (1)): 0 (0) % | Cre elevation ≧ G2, patients (TOR 120 mg (1)): 0 (0) | GOT elevation All grade, % of patients (TOR 120 mg (1)): 16.7% | GOT elevation All grade, patients (TOR 120 mg (1)): 2 | GOT elevation ≧ G2, % of patients (TOR 120 mg (1)): 8.3% | GOT elevation ≧ G2, patients (TOR 120 mg (1)): 1 | GPT elevation All grade, % of patients (TOR 120 mg (1)): 8.3% | GPT elevation All grade, patients (TOR 120 mg (1)): 1 | GPT elevation ≧ G2, % of patients (TOR 120 mg (1)): 8.3% | GPT elevation ≧ G2, patients (TOR 120 mg (1)): 1 | Hot flush G0, % of patients (TOR 120 mg (1)): 69.2% | Hot flush G0, patients (TOR 120 mg (1)): 9 | Hot flush G1, % of patients (TOR 120 mg (1)): 15.4% | Hot flush G1, patients (TOR 120 mg (1)): 2 | Hot flush G2, % of patients (TOR 120 mg (1)): 15.4% | Hot flush G2, patients (TOR 120 mg (1)): 2 | Hyperglycemia All grade, % of patients (TOR 120 mg (1)): 0 (0) % | Hyperglycemia All grade, patients (TOR 120 mg (1)): 0 (0) | Hyperglycemia ≧ G2, % of patients (TOR 120 mg (1)): 0 (0) % | Hyperglycemia ≧ G2, patients (TOR 120 mg (1)): 0 (0) | LDH elevation All grade, % of patients (TOR 120 mg (1)): 7.1% | LDH elevation All grade, patients (TOR 120 mg (1)): 1 | LDH elevation ≧ G2, % of patients (TOR 120 mg (1)): 7.1% | LDH elevation ≧ G2, patients (TOR 120 mg (1)): 1 | LDL elevation All grade, % of patients (TOR 120 mg (1)): 14.3% | LDL elevation All grade, patients (TOR 120 mg (1)): 1 | LDL elevation ≧ G2, % of patients (TOR 120 mg (1)): 0 (0) % | LDL elevation ≧ G2, patients (TOR 120 mg (1)): 0 (0) | Low PLT All grade, % of patients (TOR 120 mg (1)): 0 (0) % | Low PLT All grade, patients (TOR 120 mg (1)): 0 (0) | Low PLT ≧ G2, % of patients (TOR 120 mg (1)): 0 (0) % | Low PLT ≧ G2, patients (TOR 120 mg (1)): 0 (0) | Low WBC All grade, % of patients (TOR 120 mg (1)): 11.1% | Low WBC All grade, patients (TOR 120 mg (1)): 1 | Low WBC ≧ G2, % of patients (TOR 120 mg (1)): 11.1%
